Measurements taken from PubChem BioAssay AID1963978 (Molecular Pharmacology Branch, DTP, NCI, 2024).

System: 616215-338-R-J1-PDC spheroids with HUVEC/MSC, viability
Test: Anticancer human tumor 616215-338-R-J1-PDC patient-derived colon adenocarcinoma cell line growth inhibition [PI3K]
Conditions: for viability, T/C: stronger effect = lower value; active = viability on the fitted dose curve at most 10% of control; inactive = the rest
Procedure, shortened: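 Three cell types, namely tumor cells, endothelial cells and mesenchymal stem cells, formed each spheroid. Combinations with four PI3K inhibitors were screened at clinically achievable concentrations decreasing by half-log, and spheroid viability was recorded.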

[1] = curve of first compound, second compound 0.0316 µM
[2] = curve of first compound, second compound 0.1 µM
[3] = curve of first compound, second compound 0.316 µM
[4] = curve of first compound, second compound 1 µM
[5] = curve of first compound, second compound 3.16 µM
[6] = curve of first compound, second compound 10 µM
[7] = second compound 0.0316 µM, first compound 0.0316 µM
[8] = second compound 0.0316 µM, first compound 0.1 µM
[9] = second compound 0.0316 µM, first compound 0.316 µM
[10] = second compound 0.0316 µM, first compound 1 µM
[11] = second compound 0.0316 µM, first compound 3.16 µM
[12] = second compound 0.0316 µM, first compound 10 µM
[13] = second compound 0.1 µM, first compound 0.0316 µM
[14] = second compound 0.1 µM, first compound 0.1 µM
[15] = second compound 0.1 µM, first compound 0.316 µM
[16] = second compound 0.1 µM, first compound 1 µM
[17] = second compound 0.1 µM, first compound 3.16 µM
[18] = second compound 0.1 µM, first compound 10 µM
[19] = second compound 0.316 µM, first compound 0.0316 µM
[20] = second compound 0.316 µM, first compound 0.1 µM
[21] = second compound 0.316 µM, first compound 0.316 µM
[22] = second compound 0.316 µM, first compound 1 µM
[23] = second compound 0.316 µM, first compound 3.16 µM
[24] = second compound 0.316 µM, first compound 10 µM
[25] = second compound 1 µM, first compound 0.0316 µM
[26] = second compound 1 µM, first compound 0.1 µM
[27] = second compound 1 µM, first compound 0.316 µM
[28] = second compound 1 µM, first compound 1 µM
[29] = second compound 1 µM, first compound 3.16 µM
[30] = second compound 1 µM, first compound 10 µM
[31] = second compound 3.16 µM, first compound 0.0316 µM
[32] = second compound 3.16 µM, first compound 0.1 µM
[33] = second compound 3.16 µM, first compound 0.316 µM
[34] = second compound 3.16 µM, first compound 1 µM
[35] = second compound 3.16 µM, first compound 3.16 µM
[36] = second compound 3.16 µM, first compound 10 µM
[37] = second compound 10 µM, first compound 0.0316 µM
[38] = second compound 10 µM, first compound 0.1 µM
[39] = second compound 10 µM, first compound 0.316 µM
[40] = second compound 10 µM, first compound 1 µM
[41] = second compound 10 µM, first compound 3.16 µM
[42] = second compound 10 µM, first compound 10 µM
[43] = curve of first compound, second compound 0.00316 µM
[44] = curve of first compound, second compound 0.01 µM
[45] = second compound 0.00316 µM, first compound 0.0316 µM
[46] = second compound 0.00316 µM, first compound 0.1 µM
[47] = second compound 0.00316 µM, first compound 0.316 µM
[48] = second compound 0.00316 µM, first compound 1 µM
[49] = second compound 0.00316 µM, first compound 3.16 µM
[50] = second compound 0.00316 µM, first compound 10 µM
[51] = second compound 0.01 µM, first compound 0.0316 µM
[52] = second compound 0.01 µM, first compound 0.1 µM
[53] = second compound 0.01 µM, first compound 0.316 µM
[54] = second compound 0.01 µM, first compound 1 µM
[55] = second compound 0.01 µM, first compound 3.16 µM
[56] = second compound 0.01 µM, first compound 10 µM
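Also: spheroids exposed to agents for seven days before the viability read.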

CC1(C)CCC(Nc2ncc(C(F)(F)F)c(-c3c[nH]c4c(P(C)(C)=O)c(C#N)ccc34)n2)CN1 (configuration not stated) + Cc1nc(NC(=O)N2CCCC2C(N)=O)sc1-c1ccnc(C(C)(C)C(F)(F)F)c1
3.35 µM: IC50 [4]
3.77 µM: IC50 [2]
0.185 µM: IC50 [6]
inactive: viability, T/C [7] 50.7% | viability, T/C [8] 54.1% | viability, T/C [9] 54.7% | viability, T/C [10] 56.1% | viability, T/C [11] 69.7% | viability, T/C [13] 64.5% | viability, T/C [14] 52% | viability, T/C [15] 59.5% | viability, T/C [16] 60% | viability, T/C [17] 59.7% | viability, T/C [19] 51.8% | viability, T/C [20] 57.8% | viability, T/C [21] 59.7% | viability, T/C [22] 52.8% | viability, T/C [23] 63.6% | viability, T/C [25] 61.9% | viability, T/C [26] 45.8% | viability, T/C [27] 53.7% | viability, T/C [28] 55.8% | viability, T/C [29] 52.5% | viability, T/C [31] 53.5% | viability, T/C [32] 47.5% | viability, T/C [33] 48.3% | viability, T/C [34] 57.6% | viability, T/C [35] 31.2% | viability, T/C [37] 61.6% | viability, T/C [38] 51.4% | viability, T/C [39] 46.2% | viability, T/C [40] 37.1% | viability, T/C [41] 20.2%
3.66 µM: IC50 [3]
1.1 µM: IC50 [5]
3.65 µM: IC50 [1]
active: viability, T/C [12] 0.38% | viability, T/C [18] 0.38% | viability, T/C [24] 0.32% | viability, T/C [30] 0.18% | viability, T/C [36] 0.39% | viability, T/C [42] 0.89%

C[C@@H](NC(=O)c1ncnc(N)c1Cl)c1ncc(C(=O)Nc2cc(C(F)(F)F)c(Cl)cn2)s1 + Cc1nc(NC(=O)N2CCCC2C(N)=O)sc1-c1ccnc(C(C)(C)C(F)(F)F)c1
inactive: viability, T/C [7] 91.9% | viability, T/C [8] 101% | viability, T/C [9] 94.3% | viability, T/C [10] 105% | viability, T/C [11] 112% | viability, T/C [12] 89.2% | viability, T/C [13] 111% | viability, T/C [14] 99.1% | viability, T/C [15] 101% | viability, T/C [16] 115% | viability, T/C [17] 93.7% | viability, T/C [18] 77.7% | viability, T/C [19] 107% | viability, T/C [20] 110% | viability, T/C [21] 106% | viability, T/C [22] 119% | viability, T/C [23] 109% | viability, T/C [24] 77.2% | viability, T/C [25] 112% | viability, T/C [26] 112% | viability, T/C [27] 107% | viability, T/C [28] 108% | viability, T/C [29] 108% | viability, T/C [30] 62.3% | viability, T/C [31] 102% | viability, T/C [32] 112% | viability, T/C [33] 103% | viability, T/C [34] 98.9% | viability, T/C [35] 81.1% | viability, T/C [36] 53.1% | viability, T/C [37] 97.5% | viability, T/C [38] 107% | viability, T/C [39] 88.9% | viability, T/C [40] 104% | viability, T/C [41] 68.3% | viability, T/C [42] 19.2%
4.85 µM: IC50 [6]
> 10 µM: IC50 [1] | IC50 [2] | IC50 [3] | IC50 [4] | IC50 [5]

Cn1nccc1Nc1nccc(-c2ccn(C(CO)c3ccc(Cl)c(F)c3)c(=O)c2)n1 (configuration not stated) + CC(Nc1ncnc2nc[nH]c12)c1cc2cccc(Cl)c2c(=O)n1-c1ccccc1
5.57 µM: IC50 [2]
2.62 µM: IC50 [5]
inactive: viability, T/C [7] 95.6% | viability, T/C [8] 89.2% | viability, T/C [9] 89.7% | viability, T/C [10] 68.1% | viability, T/C [11] 57% | viability, T/C [12] 42.7% | viability, T/C [13] 106% | viability, T/C [14] 102% | viability, T/C [15] 84.3% | viability, T/C [16] 77.3% | viability, T/C [17] 65.4% | viability, T/C [18] 36.5% | viability, T/C [19] 101% | viability, T/C [20] 102% | viability, T/C [21] 80.6% | viability, T/C [22] 67.1% | viability, T/C [23] 50.8% | viability, T/C [24] 29.9% | viability, T/C [25] 109% | viability, T/C [26] 98.6% | viability, T/C [27] 71.8% | viability, T/C [28] 72.9% | viability, T/C [29] 61.2% | viability, T/C [30] 40.6% | viability, T/C [31] 99.1% | viability, T/C [32] 105% | viability, T/C [33] 93.4% | viability, T/C [34] 71.3% | viability, T/C [35] 47.1% | viability, T/C [36] 28% | viability, T/C [37] 111% | viability, T/C [38] 99% | viability, T/C [39] 72.6% | viability, T/C [40] 57.8% | viability, T/C [41] 39.7% | viability, T/C [42] 12.7%
5.74 µM: IC50 [4]
1.53 µM: IC50 [6]
5.16 µM: IC50 [1]
2.94 µM: IC50 [3]

Cn1ncnc1[C@H]1c2n[nH]c(=O)c3cc(F)cc(c23)N[C@@H]1c1ccc(F)cc1
> 0.1 µM: IC50 (curve of compound)
inactive: viability, T/C (compound 0.000316 µM) 95% [middle of 4 runs] | viability, T/C (compound 0.001 µM) 97.2% [middle of 4 runs] | viability, T/C (compound 0.00316 µM) 100% [middle of 4 runs] | viability, T/C (compound 0.01 µM) 102% [middle of 4 runs] | viability, T/C (compound 0.0316 µM) 102% [middle of 4 runs] | viability, T/C (compound 0.1 µM) 94.5% [middle of 4 runs]

CC1(C)CCC(Nc2ncc(C(F)(F)F)c(-c3c[nH]c4c(P(C)(C)=O)c(C#N)ccc34)n2)CN1 (configuration not stated) + CC(Nc1ccc2c(c1)OCCn1cc(N3C(=O)OCC3C(F)F)nc1-2)C(N)=O
active: viability, T/C [50] 0.47% | viability, T/C [56] 0.42% | viability, T/C [12] 2.25% | viability, T/C [18] 2.28% | viability, T/C [24] 0.25% | viability, T/C [30] 1.17%
3.54 µM: IC50 [1]
inactive: viability, T/C [45] 50.4% | viability, T/C [46] 55.4% | viability, T/C [47] 56.4% | viability, T/C [48] 61.7% | viability, T/C [49] 59.1% | viability, T/C [51] 53.6% | viability, T/C [52] 54.3% | viability, T/C [53] 58% | viability, T/C [54] 64.8% | viability, T/C [55] 61% | viability, T/C [7] 58% | viability, T/C [8] 49.4% | viability, T/C [9] 71.4% | viability, T/C [10] 52.2% | viability, T/C [11] 55.4% | viability, T/C [13] 66.7% | viability, T/C [14] 59.5% | viability, T/C [15] 53.2% | viability, T/C [16] 59.4% | viability, T/C [17] 60.4% | viability, T/C [19] 49.8% | viability, T/C [20] 45.8% | viability, T/C [21] 59.5% | viability, T/C [22] 71.9% | viability, T/C [23] 41% | viability, T/C [25] 49.6% | viability, T/C [26] 54.3% | viability, T/C [27] 64.7% | viability, T/C [28] 62.2% | viability, T/C [29] 30.8%
3.62 µM: IC50 [43]
1.39 µM: IC50 [4]
3.73 µM: IC50 [44]
1.63 µM: IC50 [3]
3.84 µM: IC50 [2]

CC1(C)CCC(CN2CCN(c3ccc(C(=O)NS(=O)(=O)c4ccc(NCC5CCOCC5)c([N+](=O)[O-])c4)c(Oc4cnc5[nH]ccc5c4)c3)CC2)=C(c2ccc(Cl)cc2)C1 + CC(Nc1ccc2c(c1)OCCn1cc(N3C(=O)OCC3C(F)F)nc1-2)C(N)=O
inactive: viability, T/C [45] 88.6% | viability, T/C [46] 95.9% | viability, T/C [47] 104% | viability, T/C [48] 101% | viability, T/C [49] 72.8% | viability, T/C [51] 92.9% | viability, T/C [52] 101% | viability, T/C [53] 99.4% | viability, T/C [54] 106% | viability, T/C [55] 74.5% | viability, T/C [7] 90.5% | viability, T/C [8] 94.3% | viability, T/C [9] 96.6% | viability, T/C [10] 102% | viability, T/C [11] 86.9% | viability, T/C [13] 105% | viability, T/C [14] 97.8% | viability, T/C [15] 102% | viability, T/C [16] 93.2% | viability, T/C [17] 87.9% | viability, T/C [19] 98.5% | viability, T/C [20] 86.5% | viability, T/C [21] 93.5% | viability, T/C [22] 102% | viability, T/C [23] 92.5% | viability, T/C [25] 107% | viability, T/C [26] 104% | viability, T/C [27] 113% | viability, T/C [28] 103% | viability, T/C [29] 86.3%
4.6 µM: IC50 [43]
active: viability, T/C [50] 2.83% | viability, T/C [56] 2.57% | viability, T/C [12] 3.65% | viability, T/C [18] 1.87% | viability, T/C [24] 2.04% | viability, T/C [30] 1.64%
4.67 µM: IC50 [44]
5.27 µM: IC50 [1]
5.18 µM: IC50 [4]
5.25 µM: IC50 [2]
5.43 µM: IC50 [3]
